Our source for the IC50 and EC50 values is ChEMBL document CHEMBL1201862, “PubChem BioAssay data set” (2004).

The structures appear in SMILES notation. Active and inactive are the calls of the source.

Assay [1] can be described thus: insulin promoter down-regulators in MIN6 cells, imaging, high-content screening, mouse beta cells (AID 1628). Format: functional.
The target of assay [2] is T1, Heat shock factor protein 1 (Mus musculus, UniProt P38532).
T1 sequence (P38532 whole entry): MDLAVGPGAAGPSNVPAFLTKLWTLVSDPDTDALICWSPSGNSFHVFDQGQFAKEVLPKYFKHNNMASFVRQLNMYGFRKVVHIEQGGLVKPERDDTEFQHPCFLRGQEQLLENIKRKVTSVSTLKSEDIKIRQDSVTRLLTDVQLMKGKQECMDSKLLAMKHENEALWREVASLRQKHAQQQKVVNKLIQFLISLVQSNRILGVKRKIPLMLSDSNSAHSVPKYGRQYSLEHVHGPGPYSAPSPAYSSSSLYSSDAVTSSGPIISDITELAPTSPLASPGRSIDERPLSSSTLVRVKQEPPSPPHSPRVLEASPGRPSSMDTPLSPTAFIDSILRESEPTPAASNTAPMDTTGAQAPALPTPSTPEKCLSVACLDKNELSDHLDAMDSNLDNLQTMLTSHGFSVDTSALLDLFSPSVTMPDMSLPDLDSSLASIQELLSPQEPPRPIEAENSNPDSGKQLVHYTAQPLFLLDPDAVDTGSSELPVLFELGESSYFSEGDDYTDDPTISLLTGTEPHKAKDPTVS
Nature of the assay: inhibition of MG132-induced HSE-luciferase signal, confirmation, cell-based, NIH3T3, luminescence, dose retest (AID 2382).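 Also: NIH3T3 fibroblasts with HSF1-driven luciferase reporter stressed by proteasome inhibitor MG132; luminescence from HSF1-driven luciferase expression after 8 hours of MG132 stress.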 The class given is functional.

Assay [3] deals with T2, Streptokinase A (Streptococcus pyogenes serotype M1, UniProt P10520).
T2 sequence (P10520 whole entry): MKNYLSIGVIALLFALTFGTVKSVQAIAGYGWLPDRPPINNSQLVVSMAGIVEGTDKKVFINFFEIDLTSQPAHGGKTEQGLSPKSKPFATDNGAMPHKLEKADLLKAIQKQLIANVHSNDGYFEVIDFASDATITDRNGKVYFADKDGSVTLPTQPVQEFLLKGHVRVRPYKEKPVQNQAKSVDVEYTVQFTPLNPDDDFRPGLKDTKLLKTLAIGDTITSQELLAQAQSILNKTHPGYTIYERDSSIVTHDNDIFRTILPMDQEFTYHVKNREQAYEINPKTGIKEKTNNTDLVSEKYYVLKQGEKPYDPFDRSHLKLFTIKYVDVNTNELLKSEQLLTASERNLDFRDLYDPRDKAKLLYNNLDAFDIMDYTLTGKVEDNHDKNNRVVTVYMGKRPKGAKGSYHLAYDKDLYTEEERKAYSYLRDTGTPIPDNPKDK
In words: S. pyogenes streptokinase expression inhibitors, potency, dose response, plasminogen activation absorbance, OD405 (AID 1914).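 Also: secreted streptokinase activity via plasminogen activation per viability signal from cell pellet.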 The class given is functional, Streptococcus pyogenes M1 GAS.

The target in assay [4] is T3, Apoptotic protease-activating factor 1 (Homo sapiens, UniProt O14727).
T3 sequence (O14727 whole entry): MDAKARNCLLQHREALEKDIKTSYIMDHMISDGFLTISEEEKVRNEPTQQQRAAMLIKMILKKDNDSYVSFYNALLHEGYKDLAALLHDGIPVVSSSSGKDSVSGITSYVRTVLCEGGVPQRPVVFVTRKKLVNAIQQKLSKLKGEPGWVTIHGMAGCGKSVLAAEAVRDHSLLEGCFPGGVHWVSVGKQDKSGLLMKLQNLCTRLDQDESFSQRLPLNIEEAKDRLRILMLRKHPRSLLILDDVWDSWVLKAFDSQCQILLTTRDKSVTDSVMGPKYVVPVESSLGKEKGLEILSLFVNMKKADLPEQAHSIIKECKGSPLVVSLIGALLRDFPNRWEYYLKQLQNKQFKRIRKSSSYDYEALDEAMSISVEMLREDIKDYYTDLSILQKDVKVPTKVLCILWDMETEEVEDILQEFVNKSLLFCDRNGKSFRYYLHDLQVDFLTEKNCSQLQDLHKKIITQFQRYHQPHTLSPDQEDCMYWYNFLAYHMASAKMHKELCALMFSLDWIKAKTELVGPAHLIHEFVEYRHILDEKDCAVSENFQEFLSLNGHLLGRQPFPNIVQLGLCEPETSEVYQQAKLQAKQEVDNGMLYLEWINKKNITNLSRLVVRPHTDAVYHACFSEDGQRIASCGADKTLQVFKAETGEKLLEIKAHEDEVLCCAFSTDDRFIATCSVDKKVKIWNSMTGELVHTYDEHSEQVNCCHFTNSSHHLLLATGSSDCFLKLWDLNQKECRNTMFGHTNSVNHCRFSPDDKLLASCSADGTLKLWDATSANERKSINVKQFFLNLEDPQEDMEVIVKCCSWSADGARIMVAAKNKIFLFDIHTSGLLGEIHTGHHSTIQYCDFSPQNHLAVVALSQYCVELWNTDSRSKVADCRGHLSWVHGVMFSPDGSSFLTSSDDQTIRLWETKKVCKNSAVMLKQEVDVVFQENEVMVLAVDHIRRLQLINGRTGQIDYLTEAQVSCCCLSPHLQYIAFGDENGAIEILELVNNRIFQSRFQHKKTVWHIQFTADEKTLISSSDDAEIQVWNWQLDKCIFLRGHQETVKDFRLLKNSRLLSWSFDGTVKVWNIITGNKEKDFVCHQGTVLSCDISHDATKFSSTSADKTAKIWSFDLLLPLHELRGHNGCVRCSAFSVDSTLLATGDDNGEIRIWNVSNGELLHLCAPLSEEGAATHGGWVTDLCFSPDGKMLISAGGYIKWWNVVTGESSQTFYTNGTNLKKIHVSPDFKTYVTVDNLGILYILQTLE
The class given is functional.

As to `COc1ccc(C(=O)c2c(C(F)(F)F)oc3c2C(=O)c2ccccc2C3=O)cc1`, the IC50 in assay [1] was 3.05 µM (active); in assay [4], 5.29 µM (active). Moreover, the EC50 in assay [2] was 2.67 µM (active); in assay [3] it was > 150 µM (not active).

For orientation: IC50 means the point on the concentration scale where inhibition reaches its midpoint. What is called EC50 is the midpoint of the concentration-response curve.
